Reference: PMC8187357 (Communications Biology, 2021)
pEC50: −log10 of the molar value. Several values for one entry are separate records, joined by “and”; a condition that tells them apart may be missing. Equal entries are not always repeated. Entries after “also recorded” stand apart in the source; their conditions may differ.

Assays:
PD-L1 [1] = molecular target: T1, PD-L1 (Mus musculus, UniProt Q9EP73); experiment: Rescue of IFN-γ release inhibited by PD-L1, mouse splenocytes; type: cell-based; conditions: mean ± S.D.; n=2; read-out: Mouse Splenocyte IFN-γ Rescue EC50 PD-L1
T1 construct: purchased R&D Systems 1019-B7-100
Procedure: The ability of peptides, peptidomimetics, and small molecules were analyzed for their ability to rescue T-cell proliferation or IFN-γ release from the inhibitory activity of PD-L1 or PD-L2 in a splenocyte/PBMC-based functional assay as per the protocols reported in publication[20]. […] For all in vitro assays, test agent stock was prepared in water and diluted further in the assay media to achieve test concentrations. Each experimental condition was carried out in triplicates. Percent rescue for a given test compound concentration was calculated by normalizing individual percent test agent proliferation or IFN-γ release values to percent anti-CD3 and anti-CD28 antibodies stimulated proliferation or IFN-γ release. EC50 values were derived by plotting transformed data into non-linear fit in sigmoidal dose–response curve using GraphPad Prism software (Version 7).

PD-L1 [2] = molecular target: PD-L1 (Macaca fascicularis, UniProt G7PSE7); experiment: Rescue of IFN-γ release inhibited by PD-L1, monkey PBMC; type: cell-based; conditions: n=1
Procedure: The ability of peptides, peptidomimetics, and small molecules were analyzed for their ability to rescue T-cell proliferation or IFN-γ release from the inhibitory activity of PD-L1 or PD-L2 in a splenocyte/PBMC-based functional assay as per the protocols reported in publication. […] For all in vitro assays, test agent stock was prepared in water and diluted further in the assay media to achieve test concentrations. Each experimental condition was carried out in triplicates. Percent rescue for a given test compound concentration was calculated by normalizing individual percent test agent proliferation or IFN-γ release values to percent anti-CD3 and anti-CD28 antibodies stimulated proliferation or IFN-γ release. EC50 values were derived by plotting transformed data into non-linear fit in sigmoidal dose–response curve using GraphPad Prism software (Version 7).

[3] = test system: CT26 colon carcinoma model; experiment: Immune pharmacodynamics in CT26 colon carcinoma model; type: in vivo, mouse; conditions: CT26 tumor infiltrating lymphocytes, CA-170 10 mg/kg daily, PD-1 antibody J43 100 µg/animal, 5 days, individual animals
From the text: For the measurement of immune pharmacodynamics, CT26 cells were subcutaneously implanted into 5 to 7 weeks old male Balb/c mice by injecting 1 million CT26 tumor cells/ animal. When tumor volume reached ~200mm^3, animals were randomized and allocated to three treatment groups (n = 5). Similarly, for the measurement of immune pharmacodynamics in MC38 model, MC38 cell lines were subcutaneously implanted into 5 to 7 weeks old male C57B6 mice by injecting 0.5 million cells/animal. Dosing was initiated when tumor volume reached ~100 mm^3. In both tumor models, mice were orally treated daily with vehicle and CA-170 (10 mg/kg) for 5 days. As an additional control, anti-PD1 antibody (100 μg/animal, clone J43) was dosed intraperitoneally on day 1. After 24 h of last dosing, animals were sacrificed, and blood samples and tumor tissues were collected from each animal and processed for PD evaluation using antibodies shown in Supplementary Table 1 and specific methods reported in publication[51] and analyzed by FACS. The gating strategy is detailed in Supplementary Fig. 3.

CT26 colon carcinoma = experiment: CT26 model, survival in combination with cyclophosphamide; type: in vivo, mouse; conditions: CT26
Procedure: Studies in syngeneic models including B16 melanoma metastasis model and CT26 colon carcinoma subcutaneous model were performed as described. For the Docetaxel combination experiment in CT26 model, indicated dosage of docetaxel (Source: Docetere® injection by Dr Reddy’s Laboratories) was dosed intraperitoneally to animals. For the CA-170 combination groups, CA-170 (10 mg/kg/day, oral) was dosed ~10 min after docetaxel. Animal grouping, treatment efficacy assessment and %TGI calculations were performed as mentioned above. For the CT26 experiment with cyclophosphamide, 100 mg/kg of cyclophosphamide was dosed once on day 5 intraperitoneally after cell implantation (first day of dosing for all other groups). Anti-PD1 antibody (Clone J43 from BioXcel) was dosed intraperitoneally at 100 µg/animal once every week.

CT26 tumor model = experiment: Tumor-infiltrating Tregs and CD8/FoxP3 ratio in CT26 model; type: in vivo, mouse
From the text: Supplementary Figure 2: Effect of CA-170 alone and in combination with CTX on CD8/FoxP3 […]
administration of CA-170 in CT26 tumor model, as observed by the measuring CD4+CD25+FoxP3+ cells. However, an increase in the number of infiltrating CD8+ T cells increased in CA-170 + CTX treated group, led to a favourable increase in the ratio of CD8+T cells […]
(1 picture or pasted object on this page, not shown here)

[4] = test system: Cholecystokinin CCK1, CCK2; experiment: CEREP 80 panel binding: Cholecystokinin; conditions: 10 µM
Procedure: (§1) CEREP 80 panel assay was carried out by Eurofins Cerep Panlabs facility at France. A series of binding assays was carried out to understand the off-target toxicity of CA-170. CA-170 was tested at 10 μM test concentration in duplicates. Compound binding was calculated as a % inhibition of the binding of a radioactively labeled ligand specific for each target. In each experiment the respective reference compound was tested concurrently with CA-170, and the data were compared with historical values determined at Eurofins. The experiment was accepted in accordance with Eurofins validation standard operating procedure. The results are expressed as a percent of control specific binding; (measured specific binding / control specific binding) × 100 and as a percent inhibition of control specific binding; 100−(measured specific binding / control specific binding) × 100 obtained in the presence of CA-170. The IC50 values (concentration causing a half-maximal inhibition of control specific binding) and Hill coefficients (nH) were determined by non-linear regression analysis of the competition curves generated with mean replicate values using Hill equation curve fitting.

Melatonin MT1 = molecular target: T2, Melatonin MT1 (Homo sapiens, UniProt P48039); experiment: CEREP 80 panel binding: Melatonin; conditions: read-out: % Inhibition of Control Specific Binding
T2 construct: Eurofins Cerep Panlabs (contract assay)
Procedure: as §1

TNFα = experiment: CEREP 80 panel binding: Cytokines; conditions: 10 µM
Procedure: as §1

PDGF = experiment: CEREP 80 panel binding: Growth factors; conditions: 10 µM
Procedure: as §1

Sigma = experiment: CEREP 80 panel binding: Sigma; conditions: 10 µM
Procedure: as §1

Chemokines CCR1, CXCR2 = experiment: CEREP 80 panel binding: Chemokines; conditions: 10 µM
Procedure: as §1

[5] = test system: Neurokinin NK1, NK2, NK3 (antagonist); experiment: CEREP 80 panel binding: Neurokinin; conditions: 10 µM
Procedure: as §1

NeuropeptideY Y1,Y2 = experiment: CEREP 80 panel binding: NeuropeptideY; conditions: 10 µM
Procedure: as §1

[6] = test system: Ion Channels Ca2+, Kv, Skca, Na2+; experiment: CEREP 80 panel binding: Ion Channels; conditions: 10 µM
Procedure: as §1

PD-L1 [7] = molecular target: PD-L1 (Homo sapiens, UniProt Q9NZQ7); experiment: SPR and solution NMR using recombinant extracellular domains; type: binding; set-up: SPR and solution NMR using recombinant proteins containing extracellular domains; host or cells: E. coli (said of the solution NMR studies); conditions: recombinant proteins containing extracellular domains
PD-L1 (Homo sapiens, UniProt Q9NZQ7), sequence (Q9NZQ7 19-238 limits assumed, species assumed): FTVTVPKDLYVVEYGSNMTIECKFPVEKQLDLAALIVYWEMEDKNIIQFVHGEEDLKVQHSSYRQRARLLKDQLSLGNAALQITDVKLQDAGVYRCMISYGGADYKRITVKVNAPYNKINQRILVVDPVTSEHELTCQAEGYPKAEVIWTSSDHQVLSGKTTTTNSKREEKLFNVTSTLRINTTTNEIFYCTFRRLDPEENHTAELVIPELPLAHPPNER

PD-L1 (Macaca fascicularis, UniProt G7PSE7), sequence (G7PSE7 19-239): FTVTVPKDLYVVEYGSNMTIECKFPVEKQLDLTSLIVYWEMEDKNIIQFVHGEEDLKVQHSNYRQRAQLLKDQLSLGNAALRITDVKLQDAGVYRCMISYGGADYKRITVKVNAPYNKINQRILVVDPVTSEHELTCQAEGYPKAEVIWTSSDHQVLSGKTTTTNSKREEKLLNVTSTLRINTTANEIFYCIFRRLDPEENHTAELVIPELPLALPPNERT
T1 sequence (Q9EP73 with tags, fused parts or gaps limits assumed): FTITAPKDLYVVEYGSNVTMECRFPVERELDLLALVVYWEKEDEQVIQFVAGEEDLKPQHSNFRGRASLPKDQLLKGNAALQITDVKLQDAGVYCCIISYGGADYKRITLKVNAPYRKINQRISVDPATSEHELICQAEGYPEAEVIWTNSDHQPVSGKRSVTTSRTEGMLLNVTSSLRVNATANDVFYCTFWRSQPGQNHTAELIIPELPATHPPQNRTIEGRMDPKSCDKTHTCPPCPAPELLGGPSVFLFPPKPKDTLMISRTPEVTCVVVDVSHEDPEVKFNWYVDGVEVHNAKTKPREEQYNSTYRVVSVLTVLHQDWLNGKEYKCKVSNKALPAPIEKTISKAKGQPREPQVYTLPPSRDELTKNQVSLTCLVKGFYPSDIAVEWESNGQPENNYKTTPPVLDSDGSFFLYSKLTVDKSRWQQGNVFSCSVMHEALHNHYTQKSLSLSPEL
T2 sequence (P48039 whole entry): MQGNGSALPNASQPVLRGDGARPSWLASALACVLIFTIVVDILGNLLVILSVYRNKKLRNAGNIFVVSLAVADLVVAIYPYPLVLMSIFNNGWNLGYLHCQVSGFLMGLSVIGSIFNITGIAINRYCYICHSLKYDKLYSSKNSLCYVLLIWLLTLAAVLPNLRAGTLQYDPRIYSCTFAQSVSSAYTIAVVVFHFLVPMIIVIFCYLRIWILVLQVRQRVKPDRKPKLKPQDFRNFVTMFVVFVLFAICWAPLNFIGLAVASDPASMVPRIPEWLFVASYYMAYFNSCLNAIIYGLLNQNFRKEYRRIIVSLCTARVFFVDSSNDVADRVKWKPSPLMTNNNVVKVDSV

Compound: C[C@@H](O)[C@H](NC(=O)N[C@@H](CC(N)=O)c1nc([C@@H](N)CO)no1)C(=O)O [CA-170]
- pEC50 (PD-L1 [1]): 7.46
- pEC50 (PD-L1 [2]): 7.01
- Ki-67+ cells % Live, CD45+, CD3+, CD4+ T cells [3]: 57.1% and 63.22% and 64.66% and 82.55% and 45.02%
- Ki-67+ cells % Live, CD45+, CD3+, CD8+ T cells [3]: 71.24% and 82.88% and 69.7% and 88.94% and 68.84%
- OX-40+ cells % Live, CD45+, CD3+, CD4+ T cells [3]: 56.66% and 56.78% and 46.34% and 42.73% and 29.6%
- OX-40+ cells % Live, CD45+, CD3+, CD8+ T cells [3]: 87.3% and 96.29% and 95.65% and 95.1% and 35.3%
- survival advantage vs vehicle + CTX (in words) (CT26 colon carcinoma; CA-170 3 mg/kg/day + single dose CTX 100 mg/kg): Statistically significant survival advantage
- survival advantage vs vehicle + CTX (in words) (CT26 colon carcinoma; CA-170 10 mg/kg/day + single dose CTX 100 mg/kg): Statistically significant survival advantage
- levels of tumor-infiltrating Tregs (CD4+CD25+FoxP3+ cells; in words) (CT26 tumor model; CA-170): No significant change
- ratio of CD8+T cells to Tregs (in words) (CT26 tumor model; CA-170 + CTX): increased significantly
- % Inhibition of Control Specific Binding [4]: < 0%
- inhibition at 10 µM (Melatonin MT1): 5%
- % Inhibition of Control Specific Binding (TNFα): < 0%
- % Inhibition of Control Specific Binding (PDGF): 6%
- % Inhibition of Control Specific Binding (Sigma): 20%
- % Inhibition of Control Specific Binding (Chemokines CCR1, CXCR2): 1%
- % Inhibition of Control Specific Binding [5]: ≤ 6%
- % Inhibition of Control Specific Binding (NeuropeptideY Y1,Y2): ≤ 78%
- % Inhibition of Control Specific Binding [6]: 1%
- binding to PD-L1 by SPR and solution NMR (in words) (PD-L1 [7]): a definitive binding could not be established; also recorded: lack of binding
